Key:
Type in all cases: in vivo
Alopecurus myosuroides [1] = assay: Pre-emergence herbicidal activity against ALOMY; conditions: Alopecurus myosuroides, 504 h, dosage 80 g/ha, scored visually after about 3 weeks vs untreated controls
Procedure, shortened: (§1)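 Seeds sown in pots and covered with soil; compounds formulated as WP or EC applied to the soil surface as aqueous suspension or emulsion with 0.5% additive at 600 l/ha water. Pots held in greenhouse; activity scored visually about 3 weeks later as % versus untreated controls (100% = dead).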

Avena fatua [2] = assay: Pre-emergence herbicidal activity against AVEFA; conditions: Avena fatua, 504 h, dosage 80 g/ha, scored visually after about 3 weeks vs untreated controls, read-out: Pre-emergence herbicidal activity in % against AVEVA (AVEFA)
Procedure, shortened: as §1

Echinochloa crus-galli [3] = assay: Pre-emergence herbicidal activity against ECHCG; conditions: Echinochloa crus-galli, 504 h, dosage 80 g/ha, scored visually after about 3 weeks vs untreated controls
Procedure, shortened: as §1

Lolium rigidum [4] = assay: Pre-emergence herbicidal activity against LOLRI; conditions: Lolium rigidum, 504 h, dosage 80 g/ha, scored visually after about 3 weeks vs untreated controls
Procedure, shortened: as §1

Setaria viridis [5] = assay: Pre-emergence herbicidal activity against SETVI; conditions: Setaria viridis, 504 h, dosage 80 g/ha, scored visually after about 3 weeks vs untreated controls
Procedure, shortened: as §1

Abutilon theophrasti [6] = assay: Pre-emergence herbicidal activity against ABUTH; conditions: dosage 80 g/ha, scored visually after about 3 weeks vs untreated controls
Description: (§2) 1. Pre-emergence herbicidal action against harmful plants and crop plant compatibility Seeds of monocotyledonous and dicotyledonous weed plants and crop plants are placed in plastic or wood fiber pots and covered with soil. The compounds of the invention, formulated in the form of wettable powders (WP) or as emulsion concentrates (EC), are then applied onto the surface of the covering soil as aqueous suspension or emulsion with addition of 0.5% additive at a water application rate of 600 l/ha (converted). After the treatment, the pots are placed in a greenhouse and kept under good growth conditions for the trial plants. After about 3 weeks, the effect of the preparations is scored visually in comparison with untreated controls as percentages. For example, 100% activity=the plants have died, 0% activity=like control plants. [table]

Amaranthus retroflexus [7] = assay: Pre-emergence herbicidal activity against AMARE; conditions: Amaranthus retroflexus, 504 h, dosage 80 g/ha, scored visually after about 3 weeks vs untreated controls
Procedure, shortened: as §1

Pharbitis purpurea [8] = assay: Pre-emergence herbicidal activity against PHBPU; conditions: dosage 80 g/ha, scored visually after about 3 weeks vs untreated controls
Procedure, shortened: as §1

Polygonum convolvulus [9] = assay: Pre-emergence herbicidal activity against POLCO; conditions: Fallopia convolvulus, 504 h, dosage 80 g/ha, scored visually after about 3 weeks vs untreated controls
Procedure, shortened: as §1

Stellaria media [10] = assay: Pre-emergence herbicidal activity against STEME; conditions: Stellaria media, 504 h, dosage 80 g/ha, scored visually after about 3 weeks vs untreated controls
Procedure, shortened: as §1

Viola tricolor [11] = assay: Pre-emergence herbicidal activity against VIOTR; conditions: Viola tricolor, 504 h, dosage 80 g/ha, scored visually after about 3 weeks vs untreated controls
Procedure, shortened: as §1

Veronica persica [12] = assay: Pre-emergence herbicidal activity against VERPE; conditions: Veronica persica, 504 h, dosage 80 g/ha
Procedure, shortened: as §1

Hordeum murinum [13] = assay: Pre-emergence herbicidal activity against HORMU; conditions: Hordeum murinum, 504 h, dosage 80 g/ha
Procedure, shortened: as §1

Alopecurus myosuroides [14] = assay: Post-emergence herbicidal activity against ALOMY; conditions: Alopecurus myosuroides, 504 h, dosage 320 g/ha, rated visually after about 3 weeks
Procedure, shortened: (§3)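 Weeds grown in sandy loam in greenhouse, treated at one-leaf stage (2–3 weeks after sowing) by spraying WP or EC formulations as aqueous suspension/emulsion with 0.5% additive at 600 l/ha. Activity rated visually about 3 weeks later versus untreated controls (100% = plants dead, 0% = like control).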

Avena fatua [15] = assay: Post-emergence herbicidal activity against AVEFA; conditions: Avena fatua, 504 h, dosage 320 g/ha, rated visually after about 3 weeks
Procedure, shortened: as §3

Echinochloa crus-galli [16] = assay: Post-emergence herbicidal activity against ECHCG; conditions: Echinochloa crus-galli, 504 h, dosage 320 g/ha, rated visually after about 3 weeks
Procedure, shortened: as §3

Lolium rigidum [17] = assay: Post-emergence herbicidal activity against LOLRI; conditions: Lolium rigidum, 504 h, dosage 320 g/ha, rated visually after about 3 weeks
Procedure, shortened: as §3

Setaria viridis [18] = assay: Post-emergence herbicidal activity against SETVI; conditions: Setaria viridis, 504 h, dosage 320 g/ha, rated visually after about 3 weeks
Procedure, shortened: as §3

Amaranthus retroflexus [19] = assay: Post-emergence herbicidal activity against AMARE; conditions: Amaranthus retroflexus, 504 h, dosage 320 g/ha, rated visually after about 3 weeks
Procedure, shortened: as §3

Pharbitis purpurea [20] = assay: Post-emergence herbicidal activity against PHBPU; conditions: Ipomoea purpurea, 504 h, dosage 320 g/ha, rated visually after about 3 weeks
Procedure, shortened: as §3

Polygonum convolvulus [21] = assay: Post-emergence herbicidal activity against POLCO; conditions: Fallopia convolvulus, 504 h, dosage 320 g/ha, rated visually after about 3 weeks
Procedure, shortened: as §3

Stellaria media [22] = assay: Post-emergence herbicidal activity against STEME; conditions: Stellaria media, 504 h, dosage 320 g/ha, rated visually after about 3 weeks
Procedure, shortened: as §3

Viola tricolor [23] = assay: Post-emergence herbicidal activity against VIOTR; conditions: Viola tricolor, 504 h, dosage 320 g/ha, rated visually after about 3 weeks
Procedure, shortened: as §3

Veronica persica [24] = assay: Post-emergence herbicidal activity against VERPE; conditions: Veronica persica, 504 h, dosage 320 g/ha, rated visually after about 3 weeks
Procedure, shortened: as §3

Hordeum murinum [25] = assay: Post-emergence herbicidal activity against HORMU; conditions: Hordeum murinum, 504 h, dosage 320 g/ha, rated visually after about 3 weeks
Procedure, shortened: as §3

[26] = Pre-emergence herbicidal action against harmful plants (summary of the tables); conditions: 504 h, application rate of 0.08 kg of active substance or less per hectare, read-out: herbicidal action, pre-emergence treatment (very good activity)
Procedure, shortened: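 Seeds of weeds and crops were covered with soil, then WP or EC formulations were sprayed onto the soil surface pre-emergence at 600 l/ha water with 0.5% additive. Plants were grown in a greenhouse for about 3 weeks, and damage was scored visually as a percentage versus untreated controls (100% = plants dead).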

Cyperus esculentus = assay: Pre-emergence herbicidal activity against CYPES; conditions: dosage 80 g/ha, scored visually after about 3 weeks vs untreated controls
Description: as §2

Abutilon theophrasti [27] = assay: Post-emergence herbicidal activity against ABUTH; conditions: Abutilon theophrasti, 504 h, dosage 320 g/ha, rated visually after about 3 weeks
Procedure, shortened: as §3

Row | Structure (SMILES) | pest or weed control at 80 g/ha (Alopecurus myosuroides [1]) [%] | pest or weed control at 80 g/ha (Avena fatua [2]) [%] | pest or weed control at 80 g/ha (Echinochloa crus-galli [3]) [%] | pest or weed control at 80 g/ha (Lolium rigidum [4]) [%] | pest or weed control at 80 g/ha (Setaria viridis [5]) [%] | pest or weed control at 80 g/ha (Amaranthus retroflexus [7]) [%] | Pre-emergence herbicidal activity in % against PHBPU (Pharbitis purpurea [8]) [%] | pest or weed control at 80 g/ha (Polygonum convolvulus [9]) [%] | pest or weed control at 80 g/ha (Stellaria media [10]) [%] | pest or weed control at 80 g/ha (Viola tricolor [11]) [%] | pest or weed control at 80 g/ha (Veronica persica [12]) [%] | pest or weed control at 80 g/ha (Hordeum murinum [13]) [%] | pest or weed control at 320 g/ha (Alopecurus myosuroides [14]) [%] | pest or weed control at 320 g/ha (Echinochloa crus-galli [16]) [%] | pest or weed control at 320 g/ha (Lolium rigidum [17]) [%] | pest or weed control at 320 g/ha (Setaria viridis [18]) [%] | pest or weed control at 320 g/ha (Amaranthus retroflexus [19]) [%] | pest or weed control at 320 g/ha (Pharbitis purpurea [20]) [%] | pest or weed control at 320 g/ha (Stellaria media [22]) [%] | pest or weed control at 320 g/ha (Viola tricolor [23]) [%] | other results
1 | C=C[C@]1(C(=O)N[C@@H]2CO[C@H](C(=O)N(C)C)C2)CC(c2cc(F)cc(F)c2)=NO1 (mixture of isomers) [Example I-17, (5S)-3-(3,5-difluorophenyl)-N-[cis-5-(dimethylcarbamoyl)tetrahydrofuran-3-yl]-5-vinyl-4H-isoxazole-5-carboxamide] | 90 | 100 | 100 | 100 | 100 | 100 | 90 | 100 | 100 | 100 | 100 | 100 | 90 | 80 | 90 | 90 | 90 | 80 | 90 | 80 | Pre-emergence herbicidal activity in % against ABUTH (Abutilon theophrasti [6]): 80%; pest or weed control at 320 g/ha (Avena fatua [15]): 90%; pest or weed control at 320 g/ha (Polygonum convolvulus [21]): 80%; pest or weed control at 320 g/ha (Veronica persica [24]): 80%; pest or weed control at 320 g/ha (Hordeum murinum [25]): 80%; pest or weed control at 80 g/ha [26]: 80 to 100%
2 | C=C[C@]1(C(=O)N[C@@H]2CO[C@H](C(=O)NS(C)(=O)=O)C2)CC(c2cc(F)cc(F)c2)=NO1 (mixture of isomers) [Example I-16, (5S)-3-(3,5-difluorophenyl)-N-[cis-5-(methylsulfonylcarbamoyl)tetrahydrofuran-3-yl]-5-vinyl-4H-isoxazole-5-carboxamide] | 100 | 100 | 100 | 100 | 100 | 100 | 90 | 100 | 100 | 100 | 90 | 100 | 90 | 90 | 90 | 80 | 90 | 80 | 90 | 80 | Pre-emergence herbicidal activity in % against CYPES (Cyperus esculentus): 100%; pest or weed control at 320 g/ha (Abutilon theophrasti [27]): 80%; pest or weed control at 320 g/ha (Veronica persica [24]): 80%; pest or weed control at 320 g/ha (Hordeum murinum [25]): 80%; pest or weed control at 80 g/ha [26]: 80 to 100%
3 | CC1(C(=O)NC2COCC2C(=O)N2CCCC2)CC(c2cc(F)cc(F)c2)=NO1 (centres unmarked) [Example I-09, 3-(3,5-difluorophenyl)-5-methyl-N-[4-(pyrrolidine-1-carbonyl)tetrahydrofuran-3-yl]-4H-isoxazole-5-carboxamide] |  |  |  |  |  |  |  |  |  |  |  |  |  |  |  |  |  | 80 |  |  | Pre-emergence herbicidal activity in % against CYPES (Cyperus esculentus): 100%
